Drawing on PubChem BioAssay AID330 (DTP/NCI, 2004), this text covers T/C for 16 compounds.

“And” between values parts separate entries of the source, which are not always exact repeats. Equal entries are not always repeated. Toxic doses and inconclusive results are not listed.

In this experiment the test system is P388 leukemia ip, CD2F1 mice, survival T/C. As to the kind of experiment: NCI In Vivo Anticancer Drug Screen. Data for tumor model P388 Leukemia (intraperitoneal) in CD2F1 (CDF1) mice. Conditions: endpoint: median survival time, higher = longer survival. In short, it runs like this:
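Mice carrying the transplanted tumor received test compound or vehicle. Survival was recorded in each group, and the value is the treated-group measurement divided by that of the vehicle-treated control group.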

The mark [1] stands for this setting: dose: 25.0 mg/kg/injection, schedule: Q01DX005 (ip), vehicle: saline with Tween-80.
Where [2] appears, read: dose: 50.0 mg/kg/injection, schedule: Q01DX005 (ip), vehicle: saline with Tween-80.
[3] abbreviates: dose: 50.0 mg/kg/injection, schedule: Q01DX009 (ip), vehicle: Klucel (hydroxypropylcellulose) (HPC).
Setting [4] is: dose: 100.0 mg/kg/injection, schedule: Q01DX009 (ip), vehicle: Klucel (hydroxypropylcellulose) (HPC).
Where [5] appears, read: dose: 200.0 mg/kg/injection, schedule: Q01DX009 (ip), vehicle: Klucel (hydroxypropylcellulose) (HPC).
The mark [6] stands for this setting: dose: 100.0 mg/kg/injection, schedule: Q01DX005 (ip), vehicle: saline with Tween-80.
The mark [7] stands for this setting: dose: 200.0 mg/kg/injection, schedule: Q01DX005 (ip), vehicle: saline with Tween-80.
[8] abbreviates: dose: 50.0 mg/kg/injection, schedule: Q01DX009 (ip), vehicle: saline with Tween-80.
Where [9] appears, read: dose: 100.0 mg/kg/injection, schedule: Q01DX009 (ip), vehicle: saline with Tween-80.
Setting [10] is: dose: 200.0 mg/kg/injection, schedule: Q01DX009 (ip), vehicle: saline with Tween-80.
Where [11] appears, read: dose: 60.0 mg/kg/injection, schedule: Q01DX005 (ip), vehicle: saline with Tween-80.
[12] abbreviates: dose: 120.0 mg/kg/injection, schedule: Q01DX005 (ip), vehicle: saline with Tween-80.
The mark [13] stands for this setting: dose: 240.0 mg/kg/injection, schedule: Q01DX005 (ip), vehicle: saline with Tween-80.

Take `CS(=O)(=O)OCCCCOS(C)(=O)=O`: the T/C (dose: 3.75 mg/kg/injection, schedule: Q01DX009 (ip), vehicle: saline with Tween-80) was 90 % of control; the T/C (dose: 3.75 mg/kg/injection, schedule: Q03HX008 (ip), vehicle: saline with Tween-80) was 104 % of control; the T/C (dose: 3.75 mg/kg/injection, schedule: Q03HX016 (ip), vehicle: saline with Tween-80) is 100 % of control; the T/C (dose: 3.75 mg/kg/injection, schedule: Q03HX024 (ip), vehicle: saline with Tween-80) is 100 % of control; the T/C (dose: 7.5 mg/kg/injection, schedule: Q03HX008 (ip), vehicle: saline with Tween-80) was 109 % of control; the T/C (dose: 7.5 mg/kg/injection, schedule: Q03HX016 (ip), vehicle: saline with Tween-80) is 100 % of control. For the same compound, the T/C (dose: 7.5 mg/kg/injection, schedule: Q03HX024 (ip), vehicle: saline with Tween-80) was 100 % of control; the T/C (dose: 15.0 mg/kg/injection, schedule: Q01DX009 (ip), vehicle: saline with Tween-80) was 90 % of control; the T/C (dose: 15.0 mg/kg/injection, schedule: Q01DX009 (oral), vehicle: saline with Tween-80) was 104 % of control; the T/C (dose: 15.0 mg/kg/injection, schedule: Q03HX008 (ip), vehicle: saline with Tween-80) is 109 % of control; the T/C (dose: 15.0 mg/kg/injection, schedule: Q03HX016 (ip), vehicle: saline with Tween-80) was 109 % of control; the T/C (dose: 15.0 mg/kg/injection, schedule: Q03HX024 (ip), vehicle: saline with Tween-80) was 113 % of control. Moreover, the T/C was 108 % of control under setting [1]; 110 % of control (dose: 30.0 mg/kg/injection, schedule: Q01DX001 (ip), vehicle: saline with Tween-80); 100 % of control (dose: 30.0 mg/kg/injection, schedule: Q01DX009 (ip), vehicle: saline with Tween-80); 104 % of control (dose: 30.0 mg/kg/injection, schedule: Q01DX009 (oral), vehicle: saline with Tween-80); 109 % of control (dose: 30.0 mg/kg/injection, schedule: Q03HX008 (ip), vehicle: saline with Tween-80); 100 % of control (dose: 30.0 mg/kg/injection, schedule: Q03HX016 (ip), vehicle: saline with Tween-80). Besides, the T/C (dose: 30.0 mg/kg/injection, schedule: Q04DX003 (ip), vehicle: saline with Tween-80) was 90 % of control; the T/C (dose: 30.0 mg/kg/injection, schedule: Q08DX002 (ip), vehicle: saline with Tween-80) is 105 % of control; the T/C under setting [2] is 113 % of control and 93 % of control; the T/C (dose: 60.0 mg/kg/injection, schedule: Q01DX001 (ip), vehicle: saline with Tween-80) is 110 % of control; the T/C (dose: 60.0 mg/kg/injection, schedule: Q01DX001 (oral), vehicle: saline with Tween-80) is 100 % of control; the T/C (dose: 60.0 mg/kg/injection, schedule: Q08DX002 (ip), vehicle: saline with Tween-80) was 100 % of control. Besides, the T/C (dose: 240.0 mg/kg/injection, schedule: Q08DX002 (ip), vehicle: saline with Tween-80) was 100 % of control.

Turning to `OC1C(CCl)OC(OC2(CCl)OC(CCl)C(O)C2O)C(O)C1O` (stereo not drawn), the T/C runs as follows: under setting [3], 94 % of control; under setting [4], 109 % of control; under setting [5], 110 % of control.

On to `O=C(CC1(O)C(=O)Nc2ccccc21)c1ccc(Br)cc1` (stereo not drawn), for which the T/C was 108 % of control under setting [2], 103 % of control under setting [6] and 100 % of control under setting [7].

Consider `CN(C)[C@@H]1C(=O)C(C(=O)NCN2CCN(C(=N)N=C(N)N)CC2)=C(O)[C@@]2(O)C(=O)C3=C(O)c4c(O)cccc4[C@@](C)(O)[C@H]3C[C@@H]12`, for which the T/C reads like this: (dose: 1.8 mg/kg/injection, schedule: Q01DX005 (ip), vehicle: saline) 111 % of control; (dose: 3.0 mg/kg/injection, schedule: Q01DX005 (ip), vehicle: saline) 117 % of control; (dose: 8.33 mg/kg/injection, schedule: Q01DX005 (ip), vehicle: saline) 154 % of control; (dose: 10.0 mg/kg/injection, schedule: Q01DX005 (ip), vehicle: saline) 89 % of control.

Consider `O=S(=O)(Oc1cccc2ccccc12)C(F)(F)C(F)(F)C(F)(F)C(F)(F)F`, for which the T/C was 108 % of control under setting [8], 108 % of control under setting [9] and 105 % of control under setting [10].

Regarding `C=C(C)C(=O)OCCn1c(=O)c2c(ncn2C)n(C)c1=O`, the T/C reads like this: under setting [11], 96 % of control; under setting [12], 101 % of control; under setting [13], 92 % of control.

For `OCC(O)C(O)C(O)c1nn(-c2ccccc2)c2nc3ccccc3nc12` (stereo not drawn), the T/C under setting [1] was 94 % of control; the T/C under setting [2] is 100 % of control and 90 % of control; the T/C under setting [6] is 90 % of control; the T/C under setting [7] is 90 % of control.

As for `Cc1ccc(N2CCN(CC(O)COc3cc4ccccc4c4c3CCCC4)CC2)cc1C` (stereo not drawn), the T/C by setting is: (dose: 100.0 mg/kg/injection, schedule: Q04DX003 (ip), vehicle: Klucel (hydroxypropylcellulose) (HPC)) 95 % of control; (dose: 200.0 mg/kg/injection, schedule: Q04DX003 (ip), vehicle: Klucel (hydroxypropylcellulose) (HPC)) 104 % of control; (dose: 400.0 mg/kg/injection, schedule: Q04DX003 (ip), vehicle: Klucel (hydroxypropylcellulose) (HPC)) 108 % of control.

As to `CCC(c1ccc(OCc2ccccc2)cc1)c1cc2c(cc1OC)OCO2` (stereo not drawn), the T/C is 98 % of control (dose: 25.0 mg/kg/injection, schedule: Q01DX005 (ip), vehicle: distilled water + Tween-80); 92 % of control (dose: 50.0 mg/kg/injection, schedule: Q01DX005 (ip), vehicle: distilled water + Tween-80); 86 % of control (dose: 100.0 mg/kg/injection, schedule: Q01DX005 (ip), vehicle: distilled water + Tween-80); 88 % of control (dose: 200.0 mg/kg/injection, schedule: Q01DX005 (ip), vehicle: distilled water + Tween-80).

For the compound `NC(CC(=O)O)c1ccccc1` (stereo not drawn), the T/C is 107 % of control under setting [8]; 102 % of control under setting [9]; 102 % of control under setting [10]; 90 % of control (dose: 400.0 mg/kg/injection, schedule: Q01DX009 (ip), vehicle: saline with Tween-80).

In the case of `O=C1[O][Sn]2([Cl])[NH]C1C[S]2` (stereo not drawn), the T/C is, setting by setting: (dose: 50.0 mg/kg/injection, schedule: Q01DX005 (ip), vehicle: Klucel (hydroxypropylcellulose) (HPC)) 100 % of control; (dose: 100.0 mg/kg/injection, schedule: Q01DX005 (ip), vehicle: Klucel (hydroxypropylcellulose) (HPC)) 102 % of control.

As to `CC(C)(Br)C(=O)N1CCN(C(c2ccccc2)c2ccccc2)CC1`, the T/C reads like this: under setting [11], 92 % of control; under setting [12], 91 % of control; under setting [13], 89 % of control.

As to `Cc1c2ccncc2c(C)c2c1[nH]c1cc(O)ccc12`, the T/C runs as follows: (dose: 3.13 mg/kg/injection, schedule: Q04DX003 (ip), vehicle: distilled water + Tween-80) 104 % of control; (dose: 6.25 mg/kg/injection, schedule: Q04DX003 (ip), vehicle: distilled water + Tween-80) 108 % of control and 111 % of control; (dose: 12.5 mg/kg/injection, schedule: Q04DX003 (ip), vehicle: distilled water + Tween-80) 122 % of control.

Turning to `COc1ccc2c(c1)C(c1ccccc1)SC(c1ccccc1)=C2` (stereo not drawn), the T/C was 107 % of control under setting [3], 100 % of control under setting [4] and 99 % of control under setting [5].

With `CCOC(=O)NC(NC(=O)OCC)c1ccc(OC)cc1`, the T/C runs as follows: (dose: 100.0 mg/kg/injection, schedule: Q04DX003 (ip), vehicle: saline) 100 % of control; (dose: 200.0 mg/kg/injection, schedule: Q04DX003 (ip), vehicle: saline) 91 % of control; (dose: 400.0 mg/kg/injection, schedule: Q04DX003 (ip), vehicle: saline) 94 % of control.

On to `CC(=O)NC1C(OC(C)=O)C(OC(C)=O)C(COC(C)=O)OC1[N+](=O)[O-]` (stereo not drawn), for which the T/C is, setting by setting: under setting [11], 101 % of control; under setting [12], 94 % of control; under setting [13], 99 % of control.
